The values below come from patent publication US5164385A, “Azetidine derivatives and hypotensive compositions thereof” (John Wyeth & Brother, Ltd., priority 1990, dated 1992).

Assay [1] has as its system arterial blood pressure and heart rate. Nature of the assay: Hypotensive activity in anaesthetised normotensive rats. Type of assay: in vivo, rat (Sprague-Dawley). The settings on record: iv. As for the experimental part:
The compounds are tested for hypotensive activity in anaesthetised normotensive rats. In this procedure adult male Sprague-Dawley rats weighing 200-400 g are anaesthetised with 70 mg/kg pentobarbitone sodium, i.p. The fermoral (or jugular) vein, the femoral (or carotid) artery, and the trachea are cannulated and the vascular canulae then flushed with 0.3 ml of heparinised saline (125 U/ml). The arterial blood pressure and heart rate are continuously monitored. Top-up doses of 6 or 12 mg/kg anaesthetic are administered as required until a stable base-line is obtained. A cumulative dose-response curve to the test compound is then obtained, using a 5 min dose interval. Each dose is administered in a volume of […] and flushed in with 0.5 ml saline. Systolic, diastolic, and mean arterial blood pressure and heart rate are then calculated 5 min after each dose and compared with the pre-dose value. Mean results from six rats are analysed using analysis of variants. The ED20 (ie the dose giving a 20% fall in mean arterial blood pressure) is also calculated. […] The minimum effective dose of this compound which produced a significant decrease in blood pressure was 1 μg/kg iv, and the ED20 was 5.2 μg/kg iv.

A further assay addresses T1, 5-HT1 receptor (Rattus norvegicus, UniProt P19327).
T1 construct: measuring their ability to induce the 5-HT behavioural syndrome in rats; from tissue; host or cells: living rats (in vivo, intravenous dosing); endogenous receptor of the central nervous system
T1 sequence (P19327 1-422): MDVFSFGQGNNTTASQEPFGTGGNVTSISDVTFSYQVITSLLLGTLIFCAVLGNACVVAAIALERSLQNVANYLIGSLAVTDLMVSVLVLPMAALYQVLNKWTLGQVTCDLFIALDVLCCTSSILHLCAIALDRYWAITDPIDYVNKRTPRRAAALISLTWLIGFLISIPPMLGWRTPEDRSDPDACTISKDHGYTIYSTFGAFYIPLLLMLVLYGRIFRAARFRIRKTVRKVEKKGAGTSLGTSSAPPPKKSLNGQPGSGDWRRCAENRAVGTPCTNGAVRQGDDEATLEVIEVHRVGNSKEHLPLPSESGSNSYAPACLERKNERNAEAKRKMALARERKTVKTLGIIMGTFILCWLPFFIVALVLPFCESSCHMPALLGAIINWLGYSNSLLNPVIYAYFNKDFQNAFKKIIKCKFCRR
Nature of the assay: 5-HT1 receptor agonist activity in vivo: induction of the 5-HT behavioural syndrome in rats. To be noted: iv, sequential up-down method. As for the experimental part:
The compounds are evaluated for 5-HT1 receptor agonist activity in vivo by measuring their ability to induce the 5-HT behavioural syndrome in rats (A. R. Green, Neuropharmacology, 1984, 23 1521). Compounds which induce 5-HT-related behaviours are adjudged to be `active`, and a sequential up-down method (A. W. Kimball, W. T. Burnett, and D. G. Doherty, Radiation Research, 1957, 7, 1) is used to determine ED50 values for the compounds.

Setting [2] is: anaesthetised normotensive male Sprague-Dawley rats, cumulative dose-response, 5 min after each dose.

The ED50 is the dose at which the effect has come halfway, by size or by number of responders. A lower ED50 goes with an effect at a small dose.

`Oc1cccc2c1CC(N1CCC1)CC2` (centres unmarked) [Example 3, 7-(1-Azetidinyl)-5,6,7,8-tetrahydro-1-naphthalenol]: the ED20 in assay [1] (Rattus norvegicus, 5 min, anaesthetised normotensive rats, read-out: ED20 (dose giving a 20% fall in mean arterial blood pressure)) is 5.2 µg/kg. For the same molecule, the minimal effective dose in assay [1] (Rattus norvegicus, 5 min, anaesthetised normotensive rats, read-out: minimum effective dose which produced a significant decrease in blood pressure) was 1 µg/kg. In addition, in assay [1] (setting [2]), the “effect on blood pressure” value was “dose-related falls” and the “effect on heart rate” value was “dose-related falls”. This molecule also gave an ED50 at 5-HT1 receptor of 70 µg/kg.
